Several values for one entry are separate records, joined by “and”; a condition that tells them apart may be missing. Identical values can stand only once. Like-named read-outs stand apart in the source and are kept apart here.
Columns and labels:
[1] = DPPH free radical scavenging activity; settings: 0.05 mg/mL; mean ± SD, n = 3
Method: The free radical scavenging activity of standard antioxidants and synthesised sulphonamide derivatives was measured by DPPH using the Blois method[49]^,[50] 0.1 mM solution of DPPH^• in ethanol was prepared and 1 ml of this solution was added to 3 ml of the samples solution in ethanol at different concentrations. These solutions were vortexed thoroughly and kept in the darkness for 30 min. The absorbance values of this final mixture were measured at 517 nm. The reduced absorbance of the reaction mixture indicates higher free radical scavenging activity.
(§1) ABTS^•+ scavenging activity assay was performed according to Re method[51]^,[52]. The process of ABTS^•+ (2.0 mM) in water with potassium persulfate (K2S2O8) (2.45 mM) at room temperature in dark for 4 h. gave the ABTS cation radical. Dilution of ABTS^•+ was applied with sodium phosphate buffer (Na3PO4) (0.1 mol/l, pH 7.4) to measure the absorbance at 734 nm. The reactions of ABTS^•+ solution (1.0 ml) with samples solution in ethanol at different concentrations were performed. The inhibition was calculated at 734 nm for each concentration. The DPPH^• and ABTS^•+ free radical scavenging ability was calculated as the following equation: Radical scavenging activity (%) = [(Ac – As)/Ac] × 100. Where, Ac is the absorbance value of DPPH^• and ABTS^•+ before sample addition, while as is the absorbance value after sample addition.

[2] = ABTS radical cation scavenging activity; settings: 0.2 mg/mL; mean ± SD, n = 3
Method: as §1

[3] = Fe3+ reducing power (FRAP, modified Oyaizu method); settings: 0.2 mg/mL; 700 nm; mean ± SD, n = 3
Method: The power by metal-reducing of novel synthesised sulphonamide derivatives were determined by modified Oyaizu method[45]^,[46]. Different amounts of derivatives in 1 ml of ethanol were mixed with 0.5 ml of phosphate buffer (0.2 M, pH 6.6) and 0.5 ml of 1% potassium ferricyanide (K3Fe(CN)6). After the mixtures were incubated at 50 °C for 20 min, trichloroacetic acid (0.5 ml, 10%) was added to each mixture and centrifuged (at 1,008 G for 10 min.). The upper layers of the resulting solutions (0.5 ml) were first mixed with distilled water (0.5 ml) and then FeCl3 (0.1 ml, 0.1%) in the given order. absorbances were measured at 700 nm.

[4] = Cupric ion reducing assay (CUPRAC); settings: 0.2 mg/mL; mean ± SD, n = 3
Method: The reduction capacity for cupric ions (Cu^2+) was determined by Cupric Ions Reducing Assay (CUPRAC) assay as previously described[47]^,[48]. A volume of 0.25 ml neocuproine (7.5 mM) in ethanol, 0.25 ml NH4Ac (1 M) and 0.25 ml CuCl2 (0.01 M) was mixed with sample at different amounts and standards.

[5] = molecular target: hCA I (Homo sapiens, UniProt P00915); assay: biochemical; settings: esterase activity, p-nitrophenylacetate substrate, Lineweaver-Burk, mean ± SD
hCA I, sequence (P00915 whole entry): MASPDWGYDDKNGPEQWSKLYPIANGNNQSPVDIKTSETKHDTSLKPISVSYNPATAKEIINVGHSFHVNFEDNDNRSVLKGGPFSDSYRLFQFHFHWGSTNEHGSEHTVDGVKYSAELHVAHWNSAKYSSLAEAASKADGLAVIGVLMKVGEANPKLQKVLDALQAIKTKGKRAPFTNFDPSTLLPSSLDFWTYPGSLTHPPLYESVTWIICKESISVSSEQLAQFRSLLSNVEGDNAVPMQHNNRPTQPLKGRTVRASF

[6] = molecular target: hCA II (Homo sapiens, UniProt P00918); assay: hCA II esterase activity inhibition (p-nitrophenylacetate); assay type: biochemical; settings: for Ki: esterase activity, p-nitrophenylacetate substrate, Lineweaver-Burk, mean ± SD; for Selectivity index KI (hCA II/hCA I): ratio of KI values
[7] = molecular target: T1, AChE (Electrophorus electricus, UniProt O42275); assay: biochemical; settings: electric eel AChE, acetylthiocholine iodide/DTNB, 412 nm, mean ± SD
T1 construct: AChE activity isolated from electric eel (purchased); purchased; host or cells: isolated from electric eel
T1 sequence (O42275 24-633): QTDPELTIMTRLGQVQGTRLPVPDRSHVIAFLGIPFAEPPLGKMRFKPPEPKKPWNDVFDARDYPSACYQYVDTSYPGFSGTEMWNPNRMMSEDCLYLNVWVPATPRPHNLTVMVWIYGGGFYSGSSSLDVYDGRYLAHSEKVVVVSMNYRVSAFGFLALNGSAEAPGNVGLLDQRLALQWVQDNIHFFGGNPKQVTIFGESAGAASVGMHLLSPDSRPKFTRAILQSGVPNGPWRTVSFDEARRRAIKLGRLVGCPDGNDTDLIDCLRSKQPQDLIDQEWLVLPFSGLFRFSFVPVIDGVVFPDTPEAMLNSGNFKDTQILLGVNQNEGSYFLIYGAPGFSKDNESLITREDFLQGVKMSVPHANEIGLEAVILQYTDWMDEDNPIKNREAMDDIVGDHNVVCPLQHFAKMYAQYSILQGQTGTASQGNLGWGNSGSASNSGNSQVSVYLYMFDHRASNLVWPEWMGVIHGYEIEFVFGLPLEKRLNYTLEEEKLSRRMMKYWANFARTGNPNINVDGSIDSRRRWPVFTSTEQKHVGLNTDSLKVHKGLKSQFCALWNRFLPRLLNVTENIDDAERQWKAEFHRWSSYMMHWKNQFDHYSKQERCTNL
Method: AChE activity isolated from electric eel (purchased) was performed by a modified version of the Ellman method[63]. The measurement of AChE activity was performed using Acetylthiocholine (ATChI) iodide as the substrates and 5,5-Dithiobis(2-nitrobenzoic) acid (DTNB)[64]. The ATChI iodide as the substrates was monitored spectrophotometrically at 412 nm as in our previous assays[65]^,[66].

Row | SMILES | DPPH radical scavenging activity [1] [%] | ABTS radical scavenging activity [2] [%] | Fe3+ reducing ability [3] [absorbance] | Cu2+ reducing ability [4] [absorbance] | Ki ([5]; read-out: KI hCA I) | Ki ([6]; read-out: KI hCA II) | Selectivity index KI (hCA II/hCA I) [6] | Ki ([7]; read-out: KI AChE) [nM] | Ki ([6]; KI hCA II) [nM] | Ki ([7]; KI AChE) [nM] | Ki ([5]; KI hCA I) [nM]
1 | COc1ccc(O)c(C(C)(C)C)c1 [BHA, butylated hydroxyanisole, reference compound] | 21.7 ± 1.9 | 79.5 ± 6.1 | 1.23 ± 0.20 | 2.28 ± 0.13 | – | – | – | – | – | – | –
2 | Cc1cc(C(C)(C)C)c(O)c(C(C)(C)C)c1 [BHT, butylated hydroxytoluene, reference compound] | 47.0 ± 5.2 | 98.9 ± 9.1 | 0.67 ± 0.01 | 2.00 ± 0.11 | – | – | – | – | – | – | –
3 | NS(=O)(=O)c1cccc(N=Cc2cccc(Br)c2O)c1 [Compound 1, 3-((3-Bromo-2-hydroxybenzylidene)amino)benzenesulfonamide] | 18.7 ± 1.5 | 18.4 ± 2.0 | 0.15 ± 0.03 | 0.22 ± 0.02 | 59.7 ± 0.1 nM | 16.4 ± 0.7 nM | 0.27 | 24.3 ± 1 | – | – | –
4 | NS(=O)(=O)c1cccc(N=Cc2cccc(Cl)c2O)c1 [Compound 2, 3-((3-Chloro-2-hydroxybenzylidene)amino)benzenesulfonamide] | 8.2 ± 0.4 | 15.1 ± 1.4 | 0.27 ± 0.02 | 0.26 ± 0.04 | 66.6 nM and 66.5 nM | 13.8 ± 0.1 nM | 0.21 | 21 | – | – | –
5 | NS(=O)(=O)c1ccc(N=Cc2cccc(Br)c2O)cc1 [Compound 3, 4-((3-Bromo-2-hydroxybenzylidene)amino)benzenesulfonamide] | 5.9 ± 0.4 | 7.3 ± 0.6 | 0.11 ± 0.01 | 0.28 ± 0.04 | 80.5 ± 1.5 nM | 26.3 ± 0.09 nM | 0.33 | 34.9 ± 1.4 | – | – | –
6 | NS(=O)(=O)c1ccc(N=Cc2cccc(Cl)c2O)cc1 [Compound 4, 4-((3-Chloro-2-hydroxybenzylidene)amino)benzenesulfonamide] | 12.7 ± 0.9 | 14.7 ± 0.9 | 0.33 ± 0.02 | 0.24 ± 0.05 | 40.1 ± 0.6 nM | 79.3 ± 0.2 nM | 1.98 | 27.9 ± 1.3 | – | – | –
7 | NS(=O)(=O)c1cccc(NCc2cccc(Br)c2O)c1 [Compound 5, 3-((3-Bromo-2-hydroxybenzyl)amino)benzenesulfonamide] | 1.9 ± 0.09 | 76.8 ± 8.1 | 0.33 ± 0.03 | 0.99 ± 0.07 | 52.1 ± 0.7 nM | 19.8 ± 1.2 nM | 0.38 | 61.2 ± 4 | – | – | –
8 | NS(=O)(=O)c1cccc(NCc2cccc(Cl)c2O)c1 [Compound 6, 3-((3-Chloro-2-hydroxybenzyl)amino)benzenesulfonamide] | 9.2 ± 0.6 | 77.7 ± 7.9 | 0.47 ± 0.06 | 0.93 ± 0.07 | 101 ± 1.9 nM | 29.1 ± 0.3 nM | 0.29 | 25.7 ± 1 | – | – | –
9 | NS(=O)(=O)c1ccc(NCc2cccc(Br)c2O)cc1 [Compound 7, 4-((3-Bromo-2-hydroxybenzyl)amino)benzenesulfonamide] | 4.2 ± 0.4 | 74.5 ± 6.4 | 0.39 ± 0.04 | 1.15 ± 0.08 | 62.3 nM | – | 0.16 | – | 10.1 | 77 ± 9.3 | –
10 | NS(=O)(=O)c1ccc(NCc2cccc(Cl)c2O)cc1 [Compound 8, 4-((3-Chloro-2-hydroxybenzyl)amino)benzenesulfonamide] | 3.2 ± 0.6 | 78.4 ± 7.7 | 0.33 ± 0.07 | 0.80 ± 0.05 | – | 62 nM and 61.9 nM | 1.93 | – | – | 31.4 ± 1.2 | 32.1
11 | Cc1c(C)c2c(c(C)c1O)CCC(C)(C(=O)O)O2 (stereo not shown) [Trolox, reference compound] | 57.8 ± 6.8 | 94.4 ± 9.0 | 1.27 ± 0.12 | 1.81 ± 0.05 | – | – | – | – | – | – | –

— publication PMC7170330 (Journal of Enzyme Inhibition and Medicinal Chemistry, 2020)
